“And” between values parts separate entries of the source, which are not always exact repeats. Equal values may be shown once. Toxic doses and inconclusive results are not listed. Cut-off read from the data, not from the text of the source: active = T/C of 150% or more; inactive = T/C below 125%.
System: L1210 leukemia ip in BDF1 mice, survival T/C
Assay: NCI In Vivo Anticancer Drug Screen. Data for tumor model L1210 Leukemia (intraperitoneal) in B6D2F1 (BDF1) mice
Settings: endpoint: mean survival time, higher = longer survival
Summary of the method: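 Mice bearing the transplanted tumor received compound or vehicle. Survival of the treated group was divided by that of the vehicle-treated control group to give the ratio.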

[1] = dose: 100.0 mg/kg/injection, schedule: Q04DX003 (ip), vehicle: Klucel (hydroxypropylcellulose) (HPC)
[2] = dose: 200.0 mg/kg/injection, schedule: Q04DX003 (ip), vehicle: Klucel (hydroxypropylcellulose) (HPC)
[3] = dose: 400.0 mg/kg/injection, schedule: Q04DX003 (ip), vehicle: Klucel (hydroxypropylcellulose) (HPC)
[4] = dose: 25.0 mg/kg/injection, schedule: Q01DX009 (ip), vehicle: saline with Tween-80
[5] = dose: 50.0 mg/kg/injection, schedule: Q01DX009 (ip), vehicle: saline with Tween-80
[6] = dose: 100.0 mg/kg/injection, schedule: Q01DX009 (ip), vehicle: saline with Tween-80

Measured: T/C

COc1ccc2c(C)[n+]3ccc4cc(OC)c(OC)cc4c3cc2c1 (tested in a mixture with another compound)
inactive: dose: 2.5 mg/kg/injection, schedule: Q01DX009 (ip), vehicle: saline 120 % of control | dose: 5.0 mg/kg/injection, schedule: Q01DX009 (ip), vehicle: saline 121 % of control | dose: 6.25 mg/kg/injection, schedule: Q01DX009 (ip), vehicle: saline 117 % of control | dose: 12.5 mg/kg/injection, schedule: Q01DX009 (ip), vehicle: saline 121 % of control | dose: 15.0 mg/kg/injection, schedule: Q01DX009 (ip), vehicle: saline 110 % of control | dose: 20.0 mg/kg/injection, schedule: Q01DX009 (ip), vehicle: saline 123 % of control | dose: 25.0 mg/kg/injection, schedule: Q01DX009 (ip), vehicle: saline 123 % of control | dose: 40.0 mg/kg/injection, schedule: Q01DX009 (ip), vehicle: saline 124 % of control | dose: 50.0 mg/kg/injection, schedule: Q01DX009 (ip), vehicle: saline 115 % of control | dose: 80.0 mg/kg/injection, schedule: Q01DX009 (ip), vehicle: saline 105 % of control | dose: 100.0 mg/kg/injection, schedule: Q01DX009 (ip), vehicle: saline 115 % of control | dose: 108.0 mg/kg/injection, schedule: Q01DX009 (ip), vehicle: saline 100 % of control

C[N+](C)=Cc1c[nH]c2ccccc12
inactive: dose: 9.38 mg/kg/injection, schedule: Q01DX001 (ip), vehicle: steriod suspending solution 98 % of control | dose: 18.75 mg/kg/injection, schedule: Q01DX001 (ip), vehicle: steriod suspending solution 94 % of control | dose: 37.5 mg/kg/injection, schedule: Q01DX001 (ip), vehicle: steriod suspending solution 98 % of control

CCCCOC(=O)Oc1ccc(C(=O)Oc2ccc(OCC)cc2)cc1
inactive: dose: 100.0 mg/kg/injection, schedule: Q01DX009 (ip), vehicle: Klucel (hydroxypropylcellulose) (HPC) 111 % of control | [1] 104 % of control | dose: 200.0 mg/kg/injection, schedule: Q01DX009 (ip), vehicle: Klucel (hydroxypropylcellulose) (HPC) 106 % of control | [2] 109 % of control | [3] 98 % of control

C/C=C/c1nc2c([nH]1)c(=O)n(C)c(=O)n2C
inactive: dose: 50.0 mg/kg/injection, schedule: Q01DX001 (ip), vehicle: saline 107 % of control | dose: 100.0 mg/kg/injection, schedule: Q01DX001 (ip), vehicle: saline 107 % of control | dose: 200.0 mg/kg/injection, schedule: Q01DX001 (ip), vehicle: saline 104 % of control | dose: 400.0 mg/kg/injection, schedule: Q01DX001 (ip), vehicle: saline 98 % of control

COC(=O)c1c(C)n(C)c2c1c1c(O)c3c(O)c(C)c4c(c32)C(=O)C(C)(O/C=C/C(OC)C(C)C(OC(C)=O)C(C)C(O)C(C)C(O)C(C)/C=C\C=C(C)C(=O)N1)O4 (stereo not drawn)
inactive: dose: 50.0 mg/kg/injection, schedule: Q04DX003 (ip), vehicle: water 104 % of control | dose: 100.0 mg/kg/injection, schedule: Q04DX003 (ip), vehicle: water 100 % of control | dose: 200.0 mg/kg/injection, schedule: Q04DX003 (ip), vehicle: water 98 % of control | dose: 400.0 mg/kg/injection, schedule: Q04DX003 (ip), vehicle: water 98 % of control

N=C(N)SCc1ccc(Cl)cc1Cl
inactive: [4] 100 % of control | [5] 96 % of control | [6] 98 % of control | dose: 100.0 mg/kg/injection, schedule: Q04DX002 (ip), vehicle: Klucel (hydroxypropylcellulose) (HPC) 96 % of control | dose: 200.0 mg/kg/injection, schedule: Q04DX002 (ip), vehicle: Klucel (hydroxypropylcellulose) (HPC) 89 % of control | dose: 400.0 mg/kg/injection, schedule: Q04DX002 (ip), vehicle: Klucel (hydroxypropylcellulose) (HPC) 96 % of control

CCOC(=O)CCC(NC(=O)c1ccc(NC)c([N+](=O)[O-])c1)C(=O)OCC (stereo not drawn)
inactive: [1] 98 % of control | [2] 100 % of control | [3] 96 % of control

Nc1ccn(CC(=O)c2cccs2)c(=O)n1
inactive: [4] 93 % of control | [5] 98 % of control | [6] 100 % of control and 103 % of control | dose: 100.0 mg/kg/injection, schedule: Q04DX003 (ip), vehicle: saline with Tween-80 94 % of control | dose: 200.0 mg/kg/injection, schedule: Q04DX003 (ip), vehicle: saline with Tween-80 110 % of control

CCCC(CCN1CCCC1)(CNC(=O)CN(CC)CC)c1cccc2ccccc12 (stereo not drawn)
inactive: dose: 25.0 mg/kg/injection, schedule: Q04DX003 (ip), vehicle: saline 103 % of control | dose: 50.0 mg/kg/injection, schedule: Q04DX003 (ip), vehicle: saline 104 % of control | dose: 100.0 mg/kg/injection, schedule: Q04DX003 (ip), vehicle: saline 106 % of control

O=C1C(Cl)=C(Cl)C(=O)c2ccccc21
inactive: dose: 0.5 mg/kg/injection, schedule: Q01DX009 (ip), vehicle: Klucel (hydroxypropylcellulose) (HPC) 108 % of control | dose: 1.0 mg/kg/injection, schedule: Q01DX009 (ip), vehicle: Klucel (hydroxypropylcellulose) (HPC) 110 % of control | dose: 1.0 mg/kg/injection, schedule: Q04DX003 (ip), vehicle: Klucel (hydroxypropylcellulose) (HPC) 105 % of control | dose: 2.0 mg/kg/injection, schedule: Q01DX009 (ip), vehicle: Klucel (hydroxypropylcellulose) (HPC) 108 % of control | dose: 2.0 mg/kg/injection, schedule: Q04DX003 (ip), vehicle: Klucel (hydroxypropylcellulose) (HPC) 108 % of control | dose: 4.0 mg/kg/injection, schedule: Q04DX003 (ip), vehicle: Klucel (hydroxypropylcellulose) (HPC) 110 % of control | dose: 5.0 mg/kg/injection, schedule: Q01DX009 (ip), vehicle: saline with Tween-80 93 % of control | dose: 10.0 mg/kg/injection, schedule: Q01DX009 (ip), vehicle: saline with Tween-80 97 % of control | dose: 20.0 mg/kg/injection, schedule: Q01DX009 (ip), vehicle: saline with Tween-80 97 % of control

Nc1c(Br)cc2c(c1Br)Cc1cc(Cl)ccc1-2
inactive: dose: 50.0 mg/kg/injection, schedule: Q01DX001 (ip), vehicle: carboxymethylcellulose (CMC) 93 % of control | dose: 100.0 mg/kg/injection, schedule: Q01DX001 (ip), vehicle: carboxymethylcellulose (CMC) 98 % of control | dose: 200.0 mg/kg/injection, schedule: Q01DX001 (ip), vehicle: carboxymethylcellulose (CMC) 93 % of control | dose: 400.0 mg/kg/injection, schedule: Q01DX001 (ip), vehicle: carboxymethylcellulose (CMC) 93 % of control
